Test results: patent publication US20060293307A1, “Oxazolidinone derivatives as antimicrobials” (priority 2002, published 2006)
≈ marks a conversion by molar mass, not a printed value. Read-outs that look alike come from different tables or passages of the source.

Experiments:
Experiment in all cases: MIC, agar incorporation method
E. faecalis 29212 = assay type: cell-based; settings: Enterococcus faecalis; S. No. 17, E. faecalis 29212; read-out: MIC
E. faecalis SP 346 (VRE) = assay type: cell-based; settings: Enterococcus faecalis; S. No. 20, E. faecalis SP 346 (VRE); read-out: MIC
S. aureus (MRSA) 21299 = assay type: cell-based, Staphylococcus aureus; settings: Staphylococcus aureus; S. No. 5, S. aureus (MRSA) 21299; read-out: MIC
[1] = system: S. epidermidis ATCC 12228; assay type: cell-based, Staphylococcus epidermidis; settings: Staphylococcus epidermidis, ATCC12228
[2] = system: Serratia marcescens 12999; assay type: cell-based; settings: S. No. 29, Serratia marcescens 12999; read-out: MIC
S. aureus (MRSA) 15187 = assay type: cell-based, Staphylococcus aureus; settings: Staphylococcus aureus; S. No. 4, S. aureus (MRSA) 15187; read-out: MIC
S. pyogenes 19615 = assay type: cell-based, Streptococcus pyogenes; settings: Streptococcus pyogenes
S. pneumoniae 1251 = assay type: cell-based, Streptococcus pneumoniae; settings: Streptococcus pneumoniae
S. pneumoniae AB 29 = assay type: cell-based, Streptococcus pneumoniae; settings: Streptococcus pneumoniae, AB29
S. haemo ATCC 29970 = assay type: cell-based
S. aureus SG 511 = assay type: cell-based, Staphylococcus aureus; settings: Staphylococcus aureus, SG511
S. pneumoniae AB 17 = assay type: cell-based, Streptococcus pneumoniae; settings: Streptococcus pneumoniae, AB17; S. No. 40, S. pneumoniae AB 17; read-out: MIC
S. pneumoniae CS1221 = assay type: cell-based, Streptococcus pneumoniae; settings: Streptococcus pneumoniae; S. No. 34, S. pneumoniae CS1221; read-out: MIC
S pneumoniae 1294. = assay type: cell-based, Streptococcus pneumoniae; settings: Streptococcus pneumoniae
S. pneumoniae 1275 = assay type: cell-based, Streptococcus pneumoniae; settings: Streptococcus pneumoniae; S. No. 57, S. pneumoniae 1275; read-out: MIC
(MRSA) 562 = assay type: cell-based, Staphylococcus aureus; settings: Staphylococcus aureus; S. No. 8, (MRSA) 562; read-out: MIC
S. pneumoniae AB 23 = assay type: cell-based, Streptococcus pneumoniae; settings: Streptococcus pneumoniae, AB23
S. aureus ATCC29213 = assay type: cell-based, Staphylococcus aureus; settings: Staphylococcus aureus; S. No. 2, S. aureus ATCC29213; read-out: MIC
S. pneumoniae AB 22 = assay type: cell-based, Streptococcus pneumoniae; settings: Streptococcus pneumoniae, AB22
S. pneumoniae AB 16 = assay type: cell-based, Streptococcus pneumoniae; settings: Streptococcus pneumoniae, AB16
S. pneumoniae AB 21 = assay type: cell-based, Streptococcus pneumoniae; settings: Streptococcus pneumoniae, AB21
S. pneumoniae 217 = assay type: cell-based, Streptococcus pneumoniae; settings: Streptococcus pneumoniae
[3] = system: S. aureus (MRSA 33) Cipro R; assay type: cell-based, Staphylococcus aureus; settings: Staphylococcus aureus; S. No. 7, S. aureus (MRSA 33) Cipro R; read-out: MIC
S. pneumoniae AB4 = assay type: cell-based, Streptococcus pneumoniae; settings: Streptococcus pneumoniae; S. No. 33, S. pneumoniae AB4; read-out: MIC
Salmonella 205 = assay type: cell-based; settings: S. No. 26, Salmonella 205; read-out: MIC
Protocol: The compounds of the invention display antibacterial activity when tested by the agar incorporation method. The following minimum inhibitory concentrations (μg/ml) were obtained for representative compounds of the invention which are given below in the following tables.
Briefly, the compounds were dissolved in DMSO and doubling dilution of the compounds were incorporated into Meer Hilton agar before solidification. Inoculum was prepared by suspending 4 to 5 colonies into 5 ml of normal saline solution and adjusting the turbidity to 0.5 Macfarland turbidity standard tables (1.5×10^8 CFU/ml), after appropriate dilutions, 10^4 CFU/spot was transfered into the surface of dried plate and incubated for 18 hours (24 hours for MRSN studies). The concentration showing no growth of the inoculated culture was recorded as the MIC. Appropriate ATCC standard strains were simultaneously tested and result recorded only when the MIC's against standard antibiotics were within the acceptable range.

S. aureus (MRSA) ST450 = assay type: cell-based, Staphylococcus aureus; settings: Staphylococcus aureus; S. No. 6, S. aureus (MRSA) ST450; read-out: MIC
S. pneumoniae AB-2 = assay type: cell-based, Streptococcus pneumoniae; settings: Streptococcus pneumoniae, AB2
S. pyogenes 20361 = assay type: cell-based, Streptococcus pyogenes; settings: Streptococcus pyogenes; S. No. 53, S. pyogenes 20361; read-out: MIC
S. aureus ATCC 25923 = assay type: cell-based, Staphylococcus aureus; settings: Staphylococcus aureus, ATCC25923; S. No. 1, organism cell empty; read-out: MIC
P. aeruginosa ATCC 27853 = assay type: cell-based; settings: Pseudomonas aeruginosa, ATCC27853; S. No. 28, P. aeruginosa ATCC 27853; read-out: MIC
[4] = system: S. epidermidis (MRSE) 23760; assay type: cell-based, Staphylococcus epidermidis; settings: Staphylococcus epidermidis
[5] = S. No. 10, S. epidermidis ATCC 12228, read-out: MIC
[6] = S. No. 51, S. pyogenes 19615, read-out: MIC
[7] = S. No. 54, S. pneumoniae 1251, read-out: MIC
[8] = S. No. 46, S. pneumoniae AB 29, read-out: MIC
[9] = S. No. 15, S. haemo ATCC 29970, read-out: MIC
[10] = S. No. 3, S. aureus SG 511, read-out: MIC
[11] = S. No. 55, S pneumoniae 1294., read-out: MIC
[12] = S. No. 43, S. pneumoniae AB 23, read-out: MIC
[13] = S. No. 42, S. pneumoniae AB 22, read-out: MIC
[14] = S. No. 39, S. pneumoniae AB 16, read-out: MIC
[15] = S. No. 41, S. pneumoniae AB 21, read-out: MIC
[16] = S. No. 38, S. pneumoniae 217, read-out: MIC
[17] = S. No. 31, S. pneumoniae AB-2, read-out: MIC
[18] = S. No. 11, S. epidermidis (MRSE) 23760, read-out: MIC

SMILES | MIC (E. faecalis 29212) [µg/mL] | MIC (E. faecalis SP 346 (VRE)) [µg/mL] | MIC (S. aureus (MRSA) 21299) [µg/mL] | MIC [1, 5] [µg/mL] | MIC [2] [µg/mL] | MIC (S. aureus (MRSA) 15187) [µg/mL] | MIC (S. pyogenes 19615; [6]) [µg/mL] | MIC (S. pneumoniae 1251; [7]) [µg/mL] | MIC (S. pneumoniae AB 17) [µg/mL] | MIC (S. pneumoniae CS1221) [µg/mL] | MIC (S. pneumoniae 1275) [µg/mL] | MIC ((MRSA) 562) [µg/mL] | MIC (S. aureus ATCC29213) [µg/mL] | MIC [3] [µg/mL] | MIC (S. pneumoniae AB4) [µg/mL] | MIC (Salmonella 205) [µg/mL] | MIC (S. aureus (MRSA) ST450) [µg/mL] | MIC (S. pyogenes 20361) [µg/mL] | MIC (S. aureus ATCC 25923) [µg/mL] | MIC (P. aeruginosa ATCC 27853) [µg/mL] | other results
CC(=O)NC[C@H]1CN(c2ccc(N3CCN(c4ccc(C=O)o4)CC3)c(F)c2)C(=O)O1 [Compound No. 3, (S)—N-[[3-[3-Fluoro-4-[4-(5-formyl-2-furyl)-1-piperazinyl]phenyl]-2-oxo-5-oxazolidinyl]methyl]acetamide] | 0.5 (≈ 1.16 µM) | 0.5 (≈ 1.16 µM) | 0.5 (≈ 1.16 µM) | 0.25 (≈ 0.581 µM) | > 16 | 1 (≈ 2.32 µM) | 0.25 (≈ 0.581 µM) | 0.25 (≈ 0.581 µM) | < 0.125 | 0.25 (≈ 0.581 µM) | < 0.125 | 0.5 (≈ 1.16 µM) | 1 (≈ 2.32 µM) | 0.5 (≈ 1.16 µM) | 0.25 (≈ 0.581 µM) | > 16 | 1 (≈ 2.32 µM) | 0.25 (≈ 0.581 µM) | 1 (≈ 2.32 µM) | > 16 | MIC (S. pneumoniae AB 29; [8]): 0.25 µg/mL (≈ 0.581 µM); MIC (S. haemo ATCC 29970; [9]): 0.25 µg/mL (≈ 0.581 µM); MIC (S. aureus SG 511; [10]): 1 µg/mL (≈ 2.32 µM); MIC (S pneumoniae 1294.; [11]): 0.25 µg/mL (≈ 0.581 µM); MIC (S. pneumoniae AB 23; [12]): 0.25 µg/mL (≈ 0.581 µM); MIC (S. pneumoniae AB 22; [13]): 0.25 µg/mL (≈ 0.581 µM); MIC (S. pneumoniae AB 16; [14]): 0.25 µg/mL (≈ 0.581 µM); MIC (S. pneumoniae AB 21; [15]): 0.25 µg/mL (≈ 0.581 µM); MIC (S. pneumoniae 217; [16]): 0.25 µg/mL (≈ 0.581 µM); MIC (S. pneumoniae AB-2; [17]): < 0.125 µg/mL; MIC [4, 18]: 0.25 µg/mL (≈ 0.581 µM)
CC(=O)NC[C@H]1CN(c2ccc(N3CCN(c4ccc(C=O)s4)CC3)c(F)c2)C(=O)O1 [Compound No. 2, (S)—N-[[3-[3-Fluoro-4-[4-(5-formyl-2-thienyl)-1-piperazinyl]phenyl]-2-oxo-5-oxazolidinyl]methyl]acetamide] | < 0.25 | 0.5 (≈ 1.12 µM) | 0.5 (≈ 1.12 µM) | 0.5 (≈ 1.12 µM) | > 16 | 0.5 (≈ 1.12 µM) | 0.5 (≈ 1.12 µM) | 0.5 (≈ 1.12 µM) | 0.5 (≈ 1.12 µM) | 0.5 (≈ 1.12 µM) | < 0.25 | 0.5 (≈ 1.12 µM) | 1 (≈ 2.24 µM) | 0.5 (≈ 1.12 µM) | 0.5 (≈ 1.12 µM) | > 16 | 1 (≈ 2.24 µM) | 0.5 (≈ 1.12 µM) | 1 (≈ 2.24 µM) | > 16 | MIC (S. pneumoniae AB 29; [8]): < 0.25 µg/mL; MIC (S. haemo ATCC 29970; [9]): 0.5 µg/mL (≈ 1.12 µM); MIC (S. aureus SG 511; [10]): 0.5 µg/mL (≈ 1.12 µM); MIC (S pneumoniae 1294.; [11]): 0.5 µg/mL (≈ 1.12 µM); MIC (S. pneumoniae AB 23; [12]): 0.5 µg/mL (≈ 1.12 µM); MIC (S. pneumoniae AB 22; [13]): 0.5 µg/mL (≈ 1.12 µM); MIC (S. pneumoniae AB 16; [14]): < 0.25 µg/mL; MIC (S. pneumoniae AB 21; [15]): 0.5 µg/mL (≈ 1.12 µM); MIC (S. pneumoniae 217; [16]): 0.5 µg/mL (≈ 1.12 µM); MIC (S. pneumoniae AB-2; [17]): < 0.25 µg/mL; MIC [4, 18]: < 0.25 µg/mL
CC(=O)NC[C@H]1CN(c2ccc(N3CCN(c4ccc([N+](=O)[O-])s4)CC3)c(F)c2)C(=O)O1 [Compound No. 1, (S)—N-[[3-[3-Fluoro-4-[4-(5-nitro-2-thienyl)-1-piperazinyl]phenyl]-2-oxo-5-oxazolidinyl]methyl]acetamide] | 0.25 (≈ 0.539 µM) | 0.25 (≈ 0.539 µM) | 0.25 (≈ 0.539 µM) | – | > 16 | 0.25 (≈ 0.539 µM) | – | – | 0.06 (≈ 0.129 µM) | 0.06 (≈ 0.129 µM) | 0.06 (≈ 0.129 µM) | 0.25 (≈ 0.539 µM) | 0.25 (≈ 0.539 µM) | 0.25 (≈ 0.539 µM) | 0.06 (≈ 0.129 µM) | > 16 | 0.25 (≈ 0.539 µM) | 0.06 (≈ 0.129 µM) | 0.25 (≈ 0.539 µM) | > 16 | MIC [1]: 0.125 µg/mL (≈ 0.27 µM); MIC (S. pyogenes 19615; 19615): 0.125 µg/mL (≈ 0.27 µM); MIC (S. pneumoniae 1251; 1251): 0.125 µg/mL (≈ 0.27 µM); MIC (S. pneumoniae AB 29): 0.125 µg/mL (≈ 0.27 µM); MIC (S. haemo ATCC 29970): 0.125 µg/mL (≈ 0.27 µM); MIC (S. aureus SG 511): 0.125 µg/mL (≈ 0.27 µM); MIC (S pneumoniae 1294.; 1294.): 0.125 µg/mL (≈ 0.27 µM); MIC (S. pneumoniae AB 23): 0.125 µg/mL (≈ 0.27 µM); MIC (S. pneumoniae AB 22): 0.125 µg/mL (≈ 0.27 µM); MIC (S. pneumoniae AB 16): 0.125 µg/mL (≈ 0.27 µM); MIC (S. pneumoniae AB 21): 0.125 µg/mL (≈ 0.27 µM); MIC (S. pneumoniae 217; 217): 0.125 µg/mL (≈ 0.27 µM); MIC (S. pneumoniae AB-2): 0.125 µg/mL (≈ 0.27 µM); MIC ([4]; MRSE): 0.125 µg/mL (≈ 0.27 µM)
